Earlier results as cited in patent publication US5321127A, “Antiplatelet and antithrombotic activity of platelet glycoprotein Ib receptor fragments” (priority 1991, dated 1994).

Tested on: vWF binding to platelets
Details: literature

synthetic peptide spanning amino acid residues aspartate235 to lysine262: GpIbα synthetic peptide reported by Katagiri et al. (DVKAMTSNVASVQCDNSDKFPVYKYPGK; UniProt P07359 251-278, looked up, fragment)
Inhibition of ristocetin-dependent binding of vWF to platelets: inhibited
